How the values were obtained:
human polyclonal IgG = test: Static binding isotherm on WorkBeads adsorbents, Langmuir fit; settings: WorkBeads adsorbent, PBS pH 7.4, Langmuir fit
Text: Measurements of static and dynamic binding capacity: […] NO:2)-Workbeads and […] NO:30)-Workbeads were characterized in terms of static and dynamic binding capacity respectively by batch and breakthrough binding studies. The peptides […] NO:3) and […] NO:4) were not selected for further studies due to their low selectivity and low yield, respectively. […] The resin was pelleted by centrifugation and the supernatant removed. […] The resulting fractions were combined and analyzed by BCA assay to quantify the unbound IgG and, accordingly, the amount of IgG adsorbed. The resulting data were fit to a Langmuir isotherm to determine the values of Qmax and KD(Solid). […] The amount of unbound IgG was determined by analyzing the supernatants via Micro BCA Protein Assay Kit. The amount of bound IgG per volume of resin (Q) was determined by mass balance and plotted against the corresponding equilibrium concentration of unbound IgG in solution (CIgG). The data were fit to a Langmuir isotherm model, thus providing a value of maximum binding capacity (Qmax) and dissociation constant (KD).

CHO HCPs = test: CHO HCP-specific ELISA, log removal value of HCPs; parameters: species or system Chinese hamster
Description: Purification of IgG from CHO Cell culture fluids using MWRGWQC (SEQ ID NO:31)- and WQRHGIC (SEQ ID NO:30)—Workbeads: A volume of 0.1 mL of resin was packed in a PEEK microbore column, installed on a Waters 2695 unit, and equilibrated with PBS, pH 7.4. All chromatographic buffers were filtered through a compatible 0.2 μm filter prior to use. A volume of 100 μL of solution of human polyclonal IgG at 1 mg/mL in a CHO cell culture fluid at 0.205 mg/mL CHO HCPs was injected in the column at 0.02 mL/min (RT: 5 minutes). Following injection, the resin was washed with PBS at 0.2 mL/min and, subsequently, with 100 mM NaCl in PBS at 0.2 mL/min. Elution was then conducted with […] pH 4. An acidic cleaning step was conducted in 0.1 M glycine pH 2.5 to remove any proteins still bound. The absorbance of the effluent was monitored by UV/Vis spectrophotometry at 280 nm. Fractions were collected and adjusted to neutral pH. Total protein concentration was measured by BCA assay. All collected fractions were also analyzed via SDS PAGE under reducing conditions. The gel was stained by silver staining, and the overall IgG purity in the eluted fractions was determined by densitometric analysis using ImageJ software. Finally, the feed and eluted fractions were analyzed using a CHO-specific ELISA kit to determine the log removal value (LRV) of HCPs. […]

Qmax (human polyclonal IgG): 52.6 mg IgG/mL resin
Kd (human polyclonal IgG; read-out: KD(Solid)): 3.2 µM
Substance: WQRHGI
HCP clearance (CHO HCPs): greater than 99%
HCP LRV (CHO HCPs; IgG 1 mg/mL in CHO fluid with 0.205 mg/mL HCPs, elution pH 4): 2.7

— patent publication US20230399358A1, “IMMUNOGLOBULIN PURIFICATION PEPTIDES AND THEIR USE” (North Carolina State University, priority 2019, published 2023)
